Tests used:
Assay in all cases: Test E pre-/postemergence herbicide test
[1] = tested on: goosegrass; format: in vivo, Eleusine indica
Outline: (§1)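 In this greenhouse assay, compounds in a solvent vehicle containing surfactant were applied pre- and postemergence, the latter to plants 2 to 18 cm high. Control was judged by eye after 12 to 14 days on a 0 to 100 scale.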

[2] = tested on: kochia; format: in vivo, Kochia scoparia
Outline: as §1

[3] = tested on: purple nutsedge; format: in vivo, Cyperus rotundus
Outline: as §1

[4] = tested on: mustard; format: in vivo, Brassica nigra
Outline: as §1

[5] = tested on: guineagrass; format: in vivo, Panicum maximum
Outline: as §1

[6] = tested on: barnyardgrass; format: in vivo, Echinochloa crus-galli
Outline: as §1

[7] = tested on: broadleaf signalgrass; format: in vivo, Brachiaria platyphylla
Outline: as §1

[8] = tested on: common chickweed; format: in vivo, Stellaria media
Outline: as §1

[9] = tested on: itchgrass; format: in vivo, Rottboellia cochinchinensis
Outline: as §1

[10] = tested on: field bindweed; format: in vivo, Convolvulus arvensis
Outline: as §1

[11] = Postemergence, 500 g ai/ha, scale 0 to 100
[12] = Postemergence, 250 g ai/ha, scale 0 to 100
[13] = Preemergence, 62 g ai/ha, scale 0 to 100
[14] = Preemergence, 125 g ai/ha, scale 0 to 100
[15] = Preemergence, 250 g ai/ha, scale 0 (no effect) to 100 (complete control)
[16] = Preemergence, 500 g ai/ha, scale 0 (no effect) to 100 (complete control)
[17] = postemergence, 125 g ai/ha, scale 0 to 100
[18] = postemergence, 62 g ai/ha, scale 0 to 100

CCn1nc(C(C)(C)C)cc1C(=O)Nc1cc(C(=O)N(C)C)ccn1 [Compound 156, 2-[[[3-(1,1-dimethylethyl)-1-ethyl-1H-pyrazol-5-yl]carbonyl]amino]-N,N-dimethyl-4-pyridinecarboxamide]
Plant response rating, Goosegrass [1, 11]: 98
Plant response rating, Goosegrass [1, 12]: 98
Plant response rating, Goosegrass [1, 13]: 95
Plant response rating, Goosegrass [1, 14]: 95
Plant response rating, Goosegrass [1, 15]: 100
Plant response rating, Goosegrass [1, 16]: 100
Plant response rating, Goosegrass [1, 17]: 98
Plant response rating, Goosegrass [1, 18]: 95
Plant response rating, Kochia [2, 11]: 100
Plant response rating, Kochia [2, 12]: 100
Plant response rating, Kochia [2, 13]: 100
Plant response rating, Kochia [2, 14]: 100
Plant response rating, Kochia [2, 15]: 100
Plant response rating, Kochia [2, 16]: 100
Plant response rating, Kochia [2, 17]: 100
Plant response rating, Nutsedge, Purple [3, 12]: 90
Plant response rating, Nutsedge, Purple [3, 16]: 95
Plant response rating, Nutsedge, Purple [3, 17]: 75
Plant response rating, Black Mustard [4, 11]: 100
Plant response rating, Black Mustard [4, 12]: 100
Plant response rating, Black Mustard [4, 13]: 100
Plant response rating, Black Mustard [4, 14]: 100
Plant response rating, Black Mustard [4, 15]: 100
Plant response rating, Black Mustard [4, 16]: 100
Plant response rating, Black Mustard [4, 17]: 100
Plant response rating, Black Mustard [4, 18]: 98
Plant response rating, Guineagrass [5, 11]: 98
Plant response rating, Guineagrass [5, 12]: 95
Plant response rating, Guineagrass [5, 13]: 90
Plant response rating, Guineagrass [5, 14]: 100
Plant response rating, Guineagrass [5, 15]: 100
Plant response rating, Guineagrass [5, 16]: 100
Plant response rating, Guineagrass [5, 17]: 90
Plant response rating, Guineagrass [5, 18]: 60
Plant response rating, Barnyardgrass [6, 11]: 98
Plant response rating, Barnyardgrass [6, 12]: 98
Plant response rating, Barnyardgrass [6, 13]: 100
Plant response rating, Barnyardgrass [6, 14]: 100
Plant response rating, Barnyardgrass [6, 15]: 100
Plant response rating, Barnyardgrass [6, 16]: 100
Plant response rating, Barnyardgrass [6, 17]: 95
Plant response rating, Barnyardgrass [6, 18]: 90
Plant response rating, Signalgrass [7, 11]: 98
Plant response rating, Signalgrass [7, 12]: 95
Plant response rating, Signalgrass [7, 13]: 85
Plant response rating, Signalgrass [7, 15]: 90
Plant response rating, Signalgrass [7, 16]: 95
Plant response rating, Signalgrass [7, 17]: 85
Plant response rating, Signalgrass [7, 18]: 40
Plant response rating, Chickweed [8, 11]: 100
Plant response rating, Chickweed [8, 12]: 100
Plant response rating, Chickweed [8, 13]: 80
Plant response rating, Chickweed [8, 14]: 100
Plant response rating, Chickweed [8, 15]: 100
Plant response rating, Chickweed [8, 16]: 100
Plant response rating, Chickweed [8, 17]: 100
Plant response rating, Chickweed [8, 18]: 100
Plant response rating, Itchgrass [9, 11]: 98
Plant response rating, Itchgrass [9, 12]: 95
Plant response rating, Itchgrass [9, 13]: 100
Plant response rating, Itchgrass [9, 14]: 100
Plant response rating, Itchgrass [9, 15]: 100
Plant response rating, Itchgrass [9, 16]: 100
Plant response rating, Itchgrass [9, 17]: 95
Plant response rating, Itchgrass [9, 18]: 80
Plant response rating, Bindweed, Field [10, 11]: 100
Plant response rating, Bindweed, Field [10, 12]: 80
Plant response rating, Bindweed, Field [10, 13]: 60
Plant response rating, Bindweed, Field [10, 14]: 90
Plant response rating, Bindweed, Field [10, 15]: 100
Plant response rating, Bindweed, Field [10, 16]: 100
Plant response rating, Bindweed, Field [10, 17]: 65
Plant response rating, Bindweed, Field [10, 18]: 65

— patent publication US20060069132A1, “Azolecarboxamide herbicides” (priority 2004, published 2006)
